Article PMC5469451, “Identification of compounds that suppress Toxoplasma gondii tachyzoites and bradyzoites” (PLoS ONE, 2017)
Read-outs that look alike come from different tables or passages of the source.

Experiments:
[1] = system: RH-2F tachyzoites (type I strain) in HFF cells; assay: Confirmatory screening: RH-2F β-galactosidase growth assay in HFF cells; assay type: cell-based, Toxoplasma gondii; settings: for IC50: RH-2F in HFF cells, β-galactosidase assay, read-out: IC50 for parasite growth (95% CI)
Procedure: In the confirmatory screening, we utilize an RH strain β-galactosidase reporter parasite termed RH-2F (a type I strain). Briefly, RH-2F parasites were purified from freshly lysed infected host cells and used to infect confluent HFF cells cultured in 96-well plates. Five hundred parasites were added to each well, along with each test compound and 50 μL of culture medium. Plates were then incubated for 10 min at room temperature followed by an incubation at 37°C for 48 h in a CO2 incubator.
(§1) To measure the effects of tanshinone IIA and hydroxyzine on intracellular parasite growth, parasites were allowed to invade for 2 h, uninvaded parasites were washed away, and medium with compounds was added. After 48 h, the plates were frozen at -80°C. Plates were then thawed just prior to the measurement of beta-galactosidase activity. Beta-Glo (Promega) was used to measure β-galactosidase activity following the manufacturer’s instructions.

[2] = system: PLK/DLUC_1C9 in vitro-induced bradyzoites in HFF cells; assay: Effect on in vitro-induced bradyzoites (Dual-Glo firefly luciferase, BAG1 promoter); assay type: cell-based, Toxoplasma gondii; settings: 3 days bradyzoite induction, then 10, 5, 2.5, 1 μM for 48 h; relative to DMSO
Procedure: To measure the effect of tanshinone IIA and hydroxyzine on in vitro-induced bradyzoites, we used PLK/DLUC_ 1C9 parasites and the Dual-Glo luciferase assay. Briefly, HFF cells in 96-well plates were infected with 1 x 10^4 parasites/well and incubated for 3 days with ambient CO2 condition in DMEM containing 25 mM HEPES pH 8.1 and 1% FBS to induce bradyzoites. Induced bradyzoites were treated with 10, 5, 2.5, and 1 μM compounds under bradyzoite-inducing conditions. After 48 h, luciferase activities were measured by using the Dual-Glo assay system (Promega) and normalized by host cell number.

[3] = system: RH-2F intracellular parasites in HFF cells; assay: Intracellular parasite growth after invasion (β-galactosidase); assay type: cell-based, Toxoplasma gondii; settings: uninvaded parasites washed away, 48 h; 1.0 μM hydroxyzine, 2.5 μM tanshinone IIA, 25 mg/ml DS10
Procedure: as §1

[4] = system: PLK/DLUC_1C9 tachyzoites in Vero cells; assay: Primary screening: T. gondii growth assay, Renilla luciferase; assay type: cell-based, Toxoplasma gondii; settings: Toxoplasma gondii; 10 μM, 48 h, PLK/DLUC_1C9 in Vero cells; DMSO = 0%, 10 μM pyrimethamine = 100%; read-out: Parasite Inhibition (%)
Procedure: In the primary screening, purified PLK/DLULC_1C9 tachyzoites were incubated with Vero cells at a multiplicity of infection (MOI) of 0.5. After a 2-h incubation, the infected host cells were trypsinized to obtain a cell suspension and then these suspended infected cells were inoculated into 96-well optical bottom plates containing the compound library. Each well was inoculated with 2500 cells in 25 μL of culture medium. […] Following cell inoculation, each well therefore contained 0.5% DMSO and 10 μM compound. After 48 h of culture, Renilla luciferase activity was measured by using Renilla-Glo (Promega, WI, USA) following the manufacturer’s instructions. […] The Z’-value for each plate was calculated from the Renilla luciferase activity in the negative and positive control wells.

HFF cells [5] = assay: Host cell viability in bradyzoite differentiation condition; assay type: cell-based, human
Procedure: To evaluate the host cell viability in bradyzoite differentiation condition, HFF cells were incubated for 48 h in DMEM containing 25 mM HEPES pH 8.1 and 1% FBS and measured the viability as described above.

[6] = system: PLK/DLUC_1C9 parasites in HFF cells; assay: Bradyzoite differentiation assay, relative BAG1 promoter activity (Dual-Glo); assay type: cell-based, Toxoplasma gondii; settings: 1 μM hydroxyzine, 2.5 μM tanshinone IIA; added 24 h after infection, 48 h treatment
Procedure: To measure bradyzoite induction activities of tanshinone IIA and hydroxyzine, PLK/DLUC_1C9 parasites were purified and then inoculated at a concentration of 2.0 x 10^4 parasites/well into 12-well plates containing confluent monolayers of HFF cells. Cells were incubated for 24 h after infection, then compounds were added, and the cells were incubated for 48 h. After incubation, the cells in each well were lysed using 200 μL of Passive Lysis Buffer (Promega) and the lysates were stored at -80°C. For the luciferase assay, 25 μL of lysate was used and the Renilla and firefly luciferase activities were measured by using Dual-Glo (Promega) according to the manufacturer’s instruction.

[7] = Host cell cytotoxicity assay (Cell-Titer Glo), HFF cells; assay type: cell-based, human; settings: human, HFF cells, 2.5 μM, 48 h, HFF cells, read-out: Host cell viability (%)
Procedure: (§2) Vero cells and HFF cells were both used as host cells because both cell types were used for the parasite screening. After incubation for 48 h in DMEM supplemented with 5% FBS, L-glutamine, penicillin, and streptomycin, cell viabilities were measured by using a Cell-Titer Glo kit (Promega) following the manufacturer’s instructions. Control wells were treated with DMSO alone in culture medium to calculate the 100% viability for each cell type.

HFF cells [8] = assay: as above; assay type: cell-based, human; settings: 25 μM, 48 h, HFF cells, compared with DMSO
Procedure: as §2

[9] = system: PruΔku80Δhxgprt in HFF cells; assay: Immunofluorescence-based assay on spontaneously induced bradyzoites; assay type: cell-based, Toxoplasma gondii; settings: 10, 2, 0.4, 0.08 μM, 48 h; for Bradyzoite differentiation (GFP-positive PV rate): compared with DMSO
Procedure: PruΔku80Δhxgprt, which expresses GFP under the control of a bradyzoite-specific gene LDH2 promoter, [13] was used. HFF host cells were seeded to a 96-well glass bottom plate (MGB096-1-2-LG-L, Brooks Automation, MA, USA) and cultured until confluent. Parasites were freshly lysed by passing them through 27 G needles and were purified by passing them through a 5-μm-pore filter. Five thousand parasites in 100 μL of culture medium were added and mixed with an equal volume of compound-containing medium to give final drug concentrations of 10, 2, 0.4, and 0.08 μM in 0.2% DMSO. After incubation at room temperature for 10 min, the infected host cells were incubated for 48 h at 37°C in a 5% CO2 incubator. After incubation, the cells were fixed with 4% paraformaldehyde in PBS for 20 min, quenched, and permeabilized with 0.2 M glycine and 0.2% TritonX-100 in PBS for 20 min, and then blocked with 3% BSA and 0.1% Tween 20 in PBS (blocking buffer); each procedure was performed at room temperature and was followed by washes with PBS three times. All parasites were stained with an anti-Toxoplasma mouse antibody (antisera produced in ME49-infected mice), and bradyzoites were detected with an anti-GFP rabbit monoclonal antibody (Life Technologies). Secondary antibodies for mouse (Alexa633 conjugated) and rabbit (Alexa488 conjugated) and DAPI were used to develop the fluorescent signal. Stained cells on 96-well plates were analyzed with a CompuCyte iCys Research Imaging Cytometer (Beckman Coulter, IN, USA).

[10] = Host cell cytotoxicity assay (Cell-Titer Glo), Vero cells; assay type: cell-based; settings: African green monkey; 10 μM, 48 h, Vero cells; DMSO = 100%; read-out: Host Viability (%)
Procedure: Host cells were treated with compounds at the same concentration used for screening (i.e., 0.5% DMSO and 10 μM compound). Vero cells and HFF cells were both used as host cells because both cell types were used for the parasite screening. After incubation for 48 h in DMEM supplemented with 5% FBS, L-glutamine, penicillin, and streptomycin, cell viabilities were measured by using a Cell-Titer Glo kit (Promega) following the manufacturer’s instructions. Control wells were treated with DMSO alone in culture medium to calculate the 100% viability for each cell type.

[11] = 2.5 μM, 48 h, RH-2F in HFF, compared with 10 μM pyrimethamine

OCCOCCN1CCN(C(c2ccccc2)c2ccc(Cl)cc2)CC1 (stereo not shown) [Hydroxyzine]
Parasite inhibition (%) [1, 11]: 100%
inhibition at 25 µM ([1]; Toxoplasma gondii, 48 h, RH-2F in HFF, compared with 10 μM pyrimethamine, read-out: Parasite inhibition (%)): 107%
IC50 ([1]; Toxoplasma gondii): 1 µM
Bradyzoite number (firefly luciferase under BAG1 promoter, normalized by host cell number) [2]: reduced the bradyzoite number
Parasite growth when compound added after 2 h invasion window [3]: reduced parasite growth in a dose dependent manner
inhibition at 10 µM [4]: 97%
Host cell viability under the bradyzoite-inducing condition (HFF cells [5]; pH 8.1): did not affect the host cell viability
Relative BAG1 promoter activity (bradyzoite ratio) compared with 5 μM pyrimethamine treatment [6]: 0.4%
viability at 48 h, 2.5 µM [7]: 102%
Host cell viability (%) (HFF cells [8]): 100%
Host cell viability (%) (HFF cells [8]; listed as hydroxyzine): no effect on host cell viability
Parasite growth (total parasite vacuole size) [9]: reduced parasite growth in a concentration-dependent manner
Bradyzoite differentiation (GFP-positive PV rate) [9]: did not induce bradyzoite differentiation even at high concentrations
viability at 48 h, 10 µM [10]: 101%

CCc1nc(N)nc(N)c1-c1ccc(Cl)cc1 [Pyrimethamine]
Bradyzoite number (firefly luciferase under BAG1 promoter, normalized by host cell number) [2]: cannot reduce bradyzoite numbers
Parasite growth (total parasite vacuole size) [9]: reduced parasite growth in a concentration-dependent manner
Bradyzoite differentiation (GFP-positive PV rate) [9]: induced bradyzoite differentiation

Cc1coc2c1C(=O)C(=O)c1c-2ccc2c1CCCC2(C)C [Tanshinone IIA]
Parasite inhibition (%) [1, 11]: 55%
inhibition at 2.5 µM ([1]; Toxoplasma gondii, HFF, 48 h, 2.5 μM, 48 h, RH-2F in HFF, compared with 10 μM pyrimethamine, read-out: Parasite inhibition (%)): > 50%
inhibition at 25 µM ([1]; Toxoplasma gondii, HFF, 48 h, 48 h, RH-2F in HFF, compared with 10 μM pyrimethamine, read-out: Parasite inhibition (%)): 112%
IC50 ([1]; Toxoplasma gondii): 2.5 µM
Bradyzoite number (firefly luciferase under BAG1 promoter, normalized by host cell number) [2]: reduced the bradyzoite number
Parasite growth when compound added after 2 h invasion window [3]: reduced parasite growth in a dose dependent manner
inhibition at 10 µM [4]: 91%
Host cell viability under the bradyzoite-inducing condition (HFF cells [5]; HFF, pH 8.1, 1% FBS, 48 h): slightly reduced the host cell number
Relative BAG1 promoter activity (bradyzoite ratio) compared with 5 μM pyrimethamine treatment [6]: 4.7%
viability at 2.5 µM [7]: 99%
Host cell viability (%) (HFF cells [8]): 75%
Parasite growth (total parasite vacuole size) [9]: reduced parasite growth in a concentration-dependent manner
Bradyzoite differentiation (GFP-positive PV rate) [9]: did not induce bradyzoite differentiation even at high concentrations
viability at 10 µM [10]: 83%
